System: PBMC
Assay: IL-12p70 production in PBMC stimulated with complexed RNA oligonucleotides or TLR ligands, ELISA of supernatant after 24 hours
Type: cell-based, human
Settings: TLR ligands at optimal concentrations, RNA complexed with poly-L-arginine
Experimental: FIG. 5: PBMC from three different healthy donors were isolated and stimulated with the following stimuli (form left to right): medium, Poly I:C (10 μg/ml), LPS (1 μg/ml), 3M-001 (1 μM), 3M-007 (1 μM), R848 (5 μg/ml), 3M-002 (1 μM), CpG ODN2216 (3 μg/ml), (the following stimuli were all complexed using poly-L-arginine 88) medium, polyA ssRNA, poly U ssRNA, polyA/U dsRNA, polyc ssRNA, polyG ssRNA, poly C/G dsRNA, 9.1 sense ssRNA, 9.1antisene ssRNA, 9.1duplex dsRNA, 9.2sense ssRNA, 9.2 antisene ssRNA, 9.2duplex dsRNA, 9.3sense ssRNA, 9.3antisene ssRNA and 9.3duplex dsRNA. 24 hours after stimulation supernatants were harvested and analyzed for IL-12p70 (A) and TNF-a (B) production. Data from three individual donors were summarized and depicted as mean values ±SEM. […]

| Compound | IL-12p70 production within PBMC |
| --- | --- |
| polyC | no activity |
| polyU | slight yet consistent IL-12 response |
| CCOCc1nc2c(N)nc3ccccc3c2n1CC(C)(C)O [R848] | able to induce IL-12p70 production |
| CCCc1nc2c(N)nc3ccccc3c2s1 [3M-002] | able to induce IL-12p70 production |
| polyA | no activity |

Same assay, conditions: TLR ligands at optimal concentrations, RNA complexed with poly-L-arginine, listed as poly adenosine RNA oligonucleotides

| Compound | IL-12p70 production within PBMC |
| --- | --- |
| polyA | completely inactive |

Same assay, conditions: TLR ligands at optimal concentrations, RNA complexed with poly-L-arginine, listed as poly adenosine oligonucleotides

| Compound | IL-12p70 production within PBMC |
| --- | --- |
| polyA | inactive |

Same assay, conditions: donor 1, complexed with poly-L-arginine of approx. 88 amino acids

| Compound | IL-12p70 production, absolute value [pg/mL] |
| --- | --- |
| 5′-AGCUUAACCUGUCCUUCAA-3′ (RNA, backbone not given here) [9.2sense, standard ssRNA oligonucleotide, positive control on all cell culture plates] | 1390 |

Same assay, conditions: donor 2, complexed with poly-L-arginine of approx. 88 amino acids

| Compound | IL-12p70 production, absolute value [pg/mL] |
| --- | --- |
| 5′-AGCUUAACCUGUCCUUCAA-3′ (RNA, backbone not given here) [9.2sense, standard ssRNA oligonucleotide, positive control on all cell culture plates] | 396 |

System: PBMC
Assay: 193 ssRNA 4mer-motif library screen: IL-12 (IL-12p40) production in PBMC of six donors, poly-L-Arg complexation, ELISA at 44 hours, IL-12 index and adjusted IL-12 index
Type: cell-based, human
Set-up: key to Adjusted IL-12 index Mean: IL-12 index (ratio to 9.2sense) minus donor mean, averaged over 6 donors
Settings: 193 ssRNA oligonucleotide library; data from six individual donors summarized; ascending order
How it was run: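 Human PBMC from six healthy donors were stimulated in duplicate with poly-L-arginine-complexed ssRNA oligonucleotides, and IL-12p40 in supernatant was measured by ELISA at 44 h. Each value was divided by the 9.2sense control on the same plate (IL-12 index), then the donor's mean index was subtracted; adjusted indices are means ± SEM over donors.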

| Compound | Adjusted IL-12 index Mean |
| --- | --- |
| AAAAAAAUAUGAAAAAAAA (RNA, backbone not given here) [ANP-Oligo 156] | 0.27 |
| AAAAAAAGGCGAAAAAAAA (RNA, backbone not given here) [ANP-Oligo 126] | −0.54 |
| AAAAAAAAUCAAAAAAAAA (RNA, backbone not given here) [ANP-Oligo 011] | −0.43 |
| AAAAAAACUCUAAAAAAAA (RNA, backbone not given here) [ANP-Oligo 091] | −0.33 |
| AAAAAAAGAUUAAAAAAAA (RNA, backbone not given here) [ANP-Oligo 109] | 0.22 |
| AAAAAAAUCCUAAAAAAAA (RNA, backbone not given here) [ANP-Oligo 163] | −0.15 |
| AAAAAAACGCGAAAAAAAA (RNA, backbone not given here) [ANP-Oligo 078] | −0.59 |
| AAAAAAAUUUUAAAAAAAA (RNA, backbone not given here) [ANP-Oligo 193] | 0.62 |
| AAAAAAAUUUGAAAAAAAA (RNA, backbone not given here) [ANP-Oligo 192] | 0.65 |
| AAAAAAACUGCAAAAAAAA (RNA, backbone not given here) [ANP-Oligo 092] | 0 |
| AAAAAAACGUUAAAAAAAA (RNA, backbone not given here) [ANP-Oligo 085] | 0.57 |
| AAAAAAACUAUAAAAAAAA (RNA, backbone not given here) [ANP-Oligo 088] | 0.3 |
| AAAAAAAGACUAAAAAAAA (RNA, backbone not given here) [ANP-Oligo 103] | −0.25 |
| AAAAAAAGCACAAAAAAAA (RNA, backbone not given here) [ANP-Oligo 110] | −0.58 |
| AAAAAAAGAUCAAAAAAAA (RNA, backbone not given here) [ANP-Oligo 107] | −0.2 |
| AAAAAAACGCCAAAAAAAA (RNA, backbone not given here) [ANP-Oligo 077] | −0.62 |
| AAAAAAAAGUCAAAAAAAA (RNA, backbone not given here) [ANP-Oligo 035] | −0.22 |
| AAAAAAAAUAAAAAAAAAA (RNA, backbone not given here) [ANP-Oligo 004] | −0.4 |
| AAAAAAAAGAUAAAAAAAA (RNA, backbone not given here) [ANP-Oligo 028] | −0.32 |
| AAAAAAACAUCAAAAAAAA (RNA, backbone not given here) [ANP-Oligo 059] | −0.48 |
| AAAAAAAGUACAAAAAAAA (RNA, backbone not given here) [ANP-Oligo 134] | 0.42 |

Same assay, conditions: donor 3; poly-L-Arg complexed; 44 hours

| Compound | IL-12 in supernatant, mean of the two raw values of the duplicates [pg/mL] |
| --- | --- |
| 5′-AGCUUAACCUGUCCUUCAA-3′ (RNA, backbone not given here) [9.2sense, standard ssRNA oligonucleotide, positive control on all cell culture plates] | 908 |

From patent US8815503B2, “Compositions and methods for immunostimulatory RNA oligonucleotides” (Rheinische Friedrich-Wilhelms-Universitat Bonn, priority 2005, dated 2014)
